This is an account of results in paper PMC12120022, “Discovery and chemical optimisation of a potent, Bi-cyclic antimicrobial inhibitor of Escherichia coli PBP3” (Communications Biology, 2025).

Each structure is given as a SMILES string. Like-named read-outs stand apart in the source and are kept apart here.

For experiment [1], the target named is T1, EcPBP3 (Escherichia coli, UniProt P0AD68).
T1 construct: For assays, selections and SPR a construct with residues 60–588 which has the N-terminal domain, but not the transmembrane helix, was used; made in house
The experiment is described as follows: Fluorescence polarisation competition assay with fluorescent Bicycle tracer (tracer 1 / BCY12820). Type of experiment: binding. To be noted: protein 9.4 nM sets sensitivity limit, top concentration 5 µM, read-out: Ki (nM) by fluorescence polarisation with tracer 1 (BCY12820 as tracer), Geometric mean (Lower 95% CI; Upper 95% CI, n=number of values). The essentials: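 Unlabelled peptide competes with fluorescent Bicycle tracer (1 nM, as added) for EcPBP3 (9.4 nM, as added) in 10 mM HEPES, 2% glycerol, 300 mM NaCl, pH 8.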

A further experiment concerns E. coli GKCW102 (EcPore). To be noted: caMHB, biological replicates or their range. Here is the method: (§1) To evaluate the engagement of EcPBP3 by a bicyclic peptide in whole cells lacking the outer membrane permeability barrier, peptides were screened in ‘hyperporinated’ E. coli strains in which a constitutively open FhuA pore (FhuAΔC/Δ4L, lacking N-terminal cork domain and external loops) was chromosomally expressed under control of an arabinose-inducible promoter.
(§2) Minimal inhibition concentration (MIC) assays were performed in accordance with CLSI standards, using cation-adjusted Mueller Hinton broth (caMHB; Sigma Aldrich) unless otherwise specified. Induction of pore expression in hyperporinated strains E. coli GKCW101 and GKCW102 was performed by addition of 0.1% (w/v) L-arabinose to cultures at OD600 ~ 0.3, with caMHB as the culture medium.

A further experiment deals with E. coli GKCW101 (WT). To be noted: caMHB; biological replicates or their range. Here is the method:
as §1, §2

Experiment [2] addresses T1, EcPBP3. In words: Fluorescence polarisation competition assay with BOCILLIN-FL as tracer. The format is binding. The conditions noted are these: competition format, NB, non-binder (100 μM top concentration). Here is the method: Binding of output peptides to EcPBP3 was evaluated using a fluorescence polarisation (FP) assay.
[…] 10 µL of protein (9.4 nM) was mixed with either 5 µL of peptide or 5 µL of buffer and then the assay was initiated by the addition of 10 µL of tracer (1 nM) (final volume 25 µL), in a black 384 low bind, low volume plate (Corning). The buffer was 10 mM HEPES (Sigma), 2% (v/v) glycerol (Sigma), 300 mM NaCl (Sigma), adjusted to pH 8. The plate was incubated for 1 h at 25 °C and then read in a PHERAstar FS (BMG) using with an “FP 485 520 520” optic module (excitation 485 nm, emission 520 nm). The gain was determined immediately prior to the read on a tracer-only well.
Dotmatics (Dotmatics) workflows performing the above calculations were used to process the data. Values quoted are the geometric means of at least 2 repeats.

The next experiment has as its system PBPs in E. coli. The experiment is described as follows: Bocillin FL staining of PBPs extracted from bacterial membranes. Type of experiment: binding, E. coli strain DC2. To be noted: peptides at 3 µM, membranes of E. coli DC2. Here is the method:
Staining of PBPs extracted from bacterial membranes with Bocillin FL was used to determine the binding of peptide 2 (and its all-D analogue) to other PBPs in E. coli[8].
Method was adapted from that described by Kocaoglu and Carlson[8]. E. coli strain DC2 cells were grown overnight at 37 °C then diluted 100-fold and allowed to grow at 37 °C to an OD600 of 0.5 in Lysogeny broth (LB). The cells were then centrifuged (3220 x g for 10 min at room temperature) and washed once in PBS (pH 7.4) then pelleted and resuspended in ice-cold PBS. Cells were sonicated (Fisherbrand™ Model 505 Sonic Dismembrator) on ice for five 10 s intervals with 15 s cooling time in between rounds. The membranes were collected by centrifugation (21,000 x g for 15 min at 4 °C) and resuspended the pellet in 100 µL PBS using a blunt needle. The resuspended membranes were incubated with the indicated compound for 15 min at room temperature then 10 µg ml^–1 BOCILLIN-Fl (Invitrogen) was added and reacted with the resuspended membranes for 10 min. […] The total protein content of each condition was normalised to 2.5 mg ml^–1 by measuring the absorbance at A280 and adjusting where necessary with the addition of PBS. […] Following fluorescence imaging, the gel was stained with InstantBlue Ultrafast protein stain (Abcam), washed twice in water and imaged in brightfield with an iBright FL1500.

Experiment [3] addresses T1, EcPBP3. In words: SPR binding assay on immobilised EcPBP3. To be noted: 37 °C, kinetic fitting; NB = no binding at 2500 nM (Tables S-4, S-5) or 5000 nM (Table 1); read-out: Kd (nM) by SPR (geomean). In a few lines: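 EcPBP3 amine-coupled to CM5 chip (1500-2500 RU); compounds injected at 37 °C in 10 mM HEPES pH 8.0, 200 mM NaCl, 0.05% Tween-20, 2% DMSO, 50 μL min^–1, 150 s contact, 2400 s dissociation. Double-referenced sensorgrams kinetically fitted for Kd; geometric mean of ≥2 biological replicates.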

A further experiment concerns E. coli ATCC 25922. The experiment is described as follows: MIC, wild-type strain. Type of experiment: cell-based, Escherichia coli. To be noted: MHB; biological replicates or their range. On the procedure:
as §2

T1 sequence (P0AD68 60-588): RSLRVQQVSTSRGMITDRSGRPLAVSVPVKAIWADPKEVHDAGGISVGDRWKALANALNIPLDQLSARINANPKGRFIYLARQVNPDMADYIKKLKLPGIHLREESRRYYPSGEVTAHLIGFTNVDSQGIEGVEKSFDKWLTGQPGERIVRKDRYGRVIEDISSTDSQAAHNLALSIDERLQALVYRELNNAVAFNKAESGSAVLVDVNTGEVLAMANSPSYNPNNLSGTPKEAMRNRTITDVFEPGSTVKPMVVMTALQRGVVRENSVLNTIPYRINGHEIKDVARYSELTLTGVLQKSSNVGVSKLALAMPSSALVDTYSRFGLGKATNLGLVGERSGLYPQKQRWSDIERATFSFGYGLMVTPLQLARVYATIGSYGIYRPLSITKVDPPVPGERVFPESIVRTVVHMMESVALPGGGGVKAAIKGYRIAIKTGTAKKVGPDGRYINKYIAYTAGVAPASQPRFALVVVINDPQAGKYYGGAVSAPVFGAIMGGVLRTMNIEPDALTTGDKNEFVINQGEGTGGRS

Regarding `CC(C)[C@@H]1NC(=O)[C@H](Cc2c[nH]c3ccccc23)NC(=O)[C@@H]2CCCN2C(=O)[C@@H]2CSCCC(=O)N3CN(CN(C3)C(=O)CCSC[C@H](NC(=O)[C@H](C)N)C(=O)N[C@@H](CO)C(=O)N[C@@H](Cc3ccccc3)C(=O)N3CCC[C@H]3C(=O)N[C@@H](CCCCN)C(=O)N2)C(=O)CCSC[C@@H](C(=O)N[C@@H](C)C(N)=O)NC(=O)CNC(=O)[C@H](CCC(=O)O)NC1=O` [Peptide 2], the Ki at EcPBP3 [1] was < 9 nM. Besides, the “MIC E. coli GKCW102 (EcPore)” value against E. coli GKCW102 (EcPore) and against E. coli GKCW102 (EcPore) (listed as peptide 2) was 0.5 to 2 µg/mL throughout. The “MIC E. coli GKCW101 (WT)” value against E. coli GKCW101 (WT) is > 128 µg/mL. Further, at EcPBP3 [2], the “IC50 (nM) by fluorescence polarisation with Bocillin FL as tracer, Geometric mean (Lower 95% CI of geo. Mean; Upper 95% CI of geo. Mean, n=number of values)” value is “showed binding to EcPBP3”. In addition, the IC50 at EcPBP3 [2] (read-out: IC50 (nM) by fluorescence polarisation with Bocillin FL as tracer, Geometric mean (Lower 95% CI of geo. Mean; Upper 95% CI of geo. Mean, n=number of values)) is 602 nM. Also, the “Binding to other PBPs in E. coli (Bocillin FL staining)” value in the experiment on PBPs in E. coli is given as “bound only to the active site of E. coli PBP3”. Also, the Kd on EcPBP3 [3] amounted to 5.23 nM. Also, the “MIC E. coli ATCC 25922” value against E. coli ATCC 25922 was > 16 µg/mL.
